Marks after values point to notes of the source that are not given here.

The target of experiment [1] is T1, bovine brain tubulin (Bos taurus, UniProt P81947+Q6B856).
T1 construct: MAP-rich bovine brain tubulin (99% purity), Hela cell tubulin (90% purity); purchased Cytoskeleton (Denver, Colo.); host or cells: bovine brain
The experiment in a line: Reversible binding affinity assay (tubulin fluorescence). Here is the method: The affinity of both HTI-286 and of non-radiolabled Probe 1 and Probe 2, to bovine brain tubulin was determined by previously published methods (Krishnamurthy et al., Biochem., submitted). Briefly, 5 mg/mL […] tubulin prepared in PEM buffer was pre-incubated with buffer or varying concentrations of test agents in individual quartz cuvettes. The intrinsic tryptophan fluorescence of tubulin (excitation at 560 nm and maximal emission at 580 nm) was measured after pre-incubation for 90 minutes. The change in fluorescence intensity at 580 nm in the presence of compound was fitted to a quadratic equation to obtain apparent dissociation constants (KD) of the test agents.

In experiment [2] the target is T1, bovine brain tubulin. Kind of experiment: Radiolabeled Probe 1 binding by centrifugal gel filtration. The note with it: 0.5 μM tubulin, 0.005-5 μM radiolabeled Probe 1, room temperature; read-out: apparent KD, radiolabeled probe technique. On the procedure:
Binding of Probe 1 to bovine brain tubulin was also assessed by incubating 0.5 μM tubulin with 0.005-5 μM radiolabeled Probe 1 both in the presence and in the absence of 5 μM non-radiolabeled probe 1 as a competitor. Incubations were performed for 30 minutes at room temperature in PEM buffer. Binding was measured using centrifugal gel filtration on Sephadex G-50 (Microspin G-50) as described (Bai et al., Cancer Res. 1996, 56:4398-4406). Spin columns (Amersham Biosciences, Piscataway, N.J.) were centrifugated for 1 minute at 2000 rpm in a microcentrifuge immediately prior to use, and samples applied in 50 μL total volume, followed by a 2 minute centrifugation at the same speed. The amount of probe 1 bound to tubulin was quantitated by measuring the radioactivity within aliquots collected after centrifugation. The KD value, representing 50% of specific binding, was calculated from the curve generated by subtracting the amount of […].
In general terms: SEC sorts molecules by how far they enter the pores of the column.

Experiment [3] addresses T2, α-tubulin (Bos taurus, UniProt P81947).
T2 construct: MAP-rich bovine brain tubulin (99% purity), Hela cell tubulin (90% purity); purchased Cytoskeleton (Denver, Colo.); host or cells: bovine brain
The experiment in a line: Subtilisin digestion of tubulin before or after labeling with Probe 1. Format: biochemical, bovine. Here is the method: FIGS. 6A-6C provide data for the digestion of tubulin by subtilisin before or after photoaffinity labeling with Probe 1. FIG. 6A diagrams the predicted subtilisin cleavage site and cleavage products for α-tubulin. FIG. 6B provides Coomassie staining (top) and fluorographic (bottom) images of fragments photolabeled with Probe 1 and exposed to subtilisin as follows: Tubulin (5 μg) was incubed without (Lanes 1 and 4) or with 0.2 μg subtilisin for 60 minutes at 30° C. and then photolabeled with 0.25 μM [^3H]-Probe 1 (Lane 2) according to conditions specified in Section 6.1.11. Alternatively, photolabeling was done before subtilisin digestions (Lane 3). In both cases samples were then separated by SDS-PAGE. […] Again, samples were separated by SDS-PAGE.
Before or after incubating with 0.25 μM (0.36 μCi) [^3H]-Probe 1 for 30 minutes at room temperature and irradiating as described in Section 7.1.5, tubulin (5 μg) was digested under native conditions with subtilisin (0.2 μg) for 60 minutes at 30° C. Enzymatic digestions were stopped with 1 mM PMSF. After both digestion and labeling, samples were resolved by SDS-PAGE under conditions that allowed separation of α- and β-tubulin subunits. Gels were then fixed and stained with Coomassie blue from BioRad (Hercules, Calif.) and subjected to fluorography.

The target in experiment [4] is T1, bovine brain tubulin. Kind of experiment: Competition of [3H]-Probe 1 photolabeling of tubulin. To be noted: for inhibition of tubulin labeling by non-radiolabeled probe: 100 μM non-radiolabeled; for Probe 1 photolabeling of tubulin (% of no-competitor control): control (no competitor) = 100. Format: binding. On the procedure:
Alternatively, a cytosolic preparation of KB-3-1 cell lysates (50 μg) or KB-3-1 cells (40,000 cells) were used in the place of purified tubulin above. The supernatant of mechanically disrupted cells centrifuged at 100,000×g was used as a cytosolic preparation. K-3-1 cells were prepared by growing KB-3-1 cells in a 96-well plate and rinsing them with serum free medium.
If whole cells were used, Laemmli sample buffer was then added to lyse the cells.
Low grade SDS (Sigma, catalog No. L5750) was used in the running buffer, when needed, to allow separation of α and β-tubulin subunits. Gels were fixed, stained with Coomassie blue from BioRad (Hercules, Calif.) to ensure equal loading of protein, and sliced. […] Alternatively, gels were incubated with EN^3HANCE according to the manufacturer's instructions (Life Sciences Products, Inc.), washed, and dried prior to exposure of the gel to Biomax MX film from Kodak (Rochester, N.Y.) for fluorography.
After incubation for 30 minutes at 37° C., samples were irradiated with 360 nm UV light for 30 minutes and separated by SDS-PAGE. Gels were exposed to film using fluorographic techniques.
In particular, photolabeling experiments were performed as described in section 7.1.5 above, at both room temperature and at 37° C.

For experiment [5], the system named is KB cells. Kind of experiment: Cell proliferation assay in tissue culture (SRB). Format: cell-based. The note with it: Homo sapiens, KB, 72 h. On the procedure:
Cell proliferation studies were performed according to procedures described by Loganzo et al. (Cancer Res. 2003, 63:1838-1845). Briefly, KB cells were plated in 96-well plates in 100 μL media at densities pre-determined to produce 60-90% confluence at the time of analysis. Compounds, which were serially diluted into media as 2× stocks, were added to cells in duplicate. After 72 hours of incubation, cell survival was assayed by the SRB assay as described (Rabindran et al., C. Cancer Res. 1998, 58:5850-5858). IC50 values (i.e. the concentration of drug needed to inhibit cell growth by 50%) were used to evaluate drug potency.

Take `CN[C@H](C(=O)N[C@H](C(=O)N(C)[C@H](/C=C(\C)C(=O)O)C(C)C)C(C)(C)C)C(C)(C)c1ccc(C(=O)c2ccccc2)cc1` [Probe 1, 4-benzoyl-N,β,β-trimethyl-L-phenylalanyl-N^1-[(1S,2E)-3-carboxy-1-isopropylbut-2-enyl]-N^1,3-dimethyl-L-valinamide]: the Kd was 0.2 to 0.8 µM in experiment [1] (Table 1, binding to bovine brain tubulin, read-out: KD); 0.5 µM in experiment [1] (rhodamine-labeled tubulin, 90 minutes pre-incubation, read-out: apparent binding constant (KD), fluorescence method); 0.35 µM in experiment [2]. For the same compound, the “effect on subtilisin digestion of α-tubulin” value in experiment [3] (0.25 μM radiolabeled) is listed as “partially inhibits the digestion of α-tubulin”; in experiment [3] (100 or 250 μM non-radiolabeled, β-tubulin is completely digested) it was “completely blocks”. Also, the figures for the “inhibition of tubulin labeling by non-radiolabeled probe” value in experiment [4] (tubulin: radiolabeled probe 1 of 2.5:0.25 (10:1)) and in experiment [4] (tubulin: radiolabeled probe 1 of 2.5:2.5 (1:1)) were 93% and 82%, respectively. In addition, the “reduction of Probe 1 photolabeling of tubulin” value is listed as “about 75%” in experiment [4] (37° C.) and “approximately 87%” in experiment [4] (room temperature, 400-fold molar excess (100 μM) competitor, 2.5 μM tubulin, 0.25 μM radiolabeled Probe 1). The “Probe 1 photolabeling of tubulin (% of no-competitor control)” value in experiment [4] (37° C., 100 μM competitor) is listed as 24^† %; in experiment [4] (Room Temp., 2.5 μM tubulin, 0.25 μM radiolabeled Probe 1, 100 μM competitor), 12 ± 7.8%. The half-maximal inhibitory concentration (IC50) came out at 5 µM in experiment [4] (room temperature, 2.5 μM tubulin, 0.25 μM radiolabeled Probe 1, read-out: IC50 for inhibition of Probe 1 photolabeling of tubulin) and 0.0018 µM in experiment [5].

Broadly, the IC50 is the concentration that gives 50% inhibition.

For the origin of these results see patent US20070026478A1, “Hemiasterlin affinity probes and their uses” (WYETH, priority 2002, published 2007).
